Legend:
Assay type in all cases: cell-based
[1] = test system: TEAD reporter-containing human breast cancer cell line MCF7; assay: TEAD reporter (luciferase) assay; settings: TEAD reporter MCF7 cells, 24 hours treatment, 1% serum media
Method: The TEAD reporter-containing human breast cancer cell line MCF7 (60618, BPS bioscience) was cultured according to the manufacturer's instructions. Cells were plated in 96-well white plates at a density of 30,000 per well and incubated overnight. The following day cells were treated with small molecules in 1% serum media (0.1% v/v DMSO). After 24 hours of the treatment, cell viability was evaluated by using CCK-8 reagent (CK04, Dojindo) and measuring absorbance at 450 nm. Then, the assay for luciferase activity was performed using Dual-Glo® Luciferase Assay System (Promega, E2940) following the manufacturer's instructions. Luminescence intensity was measured and the potency of the compounds was determined by IC50 value generated from non-linear regression analysis of the dose-response curves.
IC50 for luciferase activity are shown in the Table 1 below and designated within the following ranges. [+++: ≤0.1 μM, ++: >0.1 μM to ≤1 μM, +: >1 μM to ≤10 μM, −: >10 μM]

MSTO-211H cells = assay: Proliferation assay (EdU incorporation), MSTO-211H; settings: Homo sapiens, 72 h, YAP-driven MSTO-211H (LATS1 mutation), 3 days with inhibitor, 1% serum
Method: (§1) The anti-proliferative activity of TEAD inhibitors was evaluated in cells with different properties for YAP; “YAP-driven” cells (MSTO-211H, NCI-H226) in which YAP located in the nucleus and “YAP-independent” cells (OCM1, NCI-H28) where YAP located in the cytoplasm. […] TEAD inhibitors were evaluated with cell lines with these YAP profiling and mutational status.
(§2) The next day, replace it with cell starvation medium containing 1% serum. After one day of growth in the starvation medium, the cells were incubated for 3 days with TEAD inhibitors in a concentration range of 0.01-10 μM. After 3 days, EdU (Invitrogen) at a concentration of 10 µM was added to the starvation medium and incubated for an additional 24 hours. After removing the starvation medium remaining in each well, wash the wells with PBS. Cells were fixed with 4% paraformaldehyde (Electron microscopy sciences) at room temperature for 20 minutes. After removing the fix solution remaining in each well, wash the wells with PBS and the cells were permeabilized for 40 minutes by adding 0.5% triton X-100 (Sigma Aldrich). After removing the permeabilization solution remaining in each well, the EdU labeling was performed according to the instructions of the manufacturer's instructions (Click-iT™ Cell Reaction Buffer Kit, Invitrogen). After the Click reaction for EdU labeling, nuclei were stained with […] (Thermo Scientific) for total cell count analysis. After plate preparation for detection, Image acquisition was performed using the ImageXpress Micro XLS. The acquired images were analyzed using MetaXpress software (molecular devices). Through this experimental method, it was possible to confirm the inhibitory activity of TEAD inhibitors by detection EdU incorporated into proliferating cells.
(§3) IC50 for cell proliferation inhibition activity are shown in the Table 2 below and designated within the following ranges. [+++: ≤0.1 μM, ++: >0.1 μM to ≤1 μM, +: >1 μM to ≤10μ, −: >10 μM]

NCI-H226 cells = assay: Proliferation assay (EdU incorporation), NCI-H226; settings: Homo sapiens, 72 h, YAP-driven NCI-H226 (NF2 mutation), 3 days with inhibitor, 1% serum
Method: as §1, §2, §3

| Compound | IC50 [1] [nM] | IC50 (NCI-H226 cells) [nM] | IC50 (MSTO-211H cells) [nM] |
| --- | --- | --- | --- |
| C=CC(=O)Nc1ccc2c(c1)c(/C=C/C1CCC(F)(F)CC1)nn2C [Compound 1, (E)-N-(3-(2-(4,4-Difluorocyclohexyl)vinyl)-1-methyl-1H-indazol-5-yl)acrylamide] | ≤ 100 | ≤ 100 | 100 to 1000 |
| C=CC(=O)Nc1ccc2c(c1)c(/C=C/c1ccc(Cl)cc1)nn2C [Compound 2, (E)-N-(3-(4-Chlorostyryl)-1-methyl-1H-indazol-5-yl)acrylamide] | 100 to 1000 | ≤ 100 | ≤ 100 |
| C=CC(=O)Nc1ccc2c(c1)c(/C=C/C1CCC(F)(F)CC1)nn2CC [Compound 3, (E)-N-(3-(2-(4,4-Difluorocyclohexyl)vinyl)-1-ethyl-1H-indazol-5-yl)acrylamide] | ≤ 100 | 100 to 1000 | ≤ 100 |
| C=CC(=O)Nc1ccc2c(c1)c(/C=C/c1ccc(Cl)cc1)nn2CC [Compound 4, (E)-N-(3-(4-Chlorostyryl)-1-ethyl-1H-indazol-5-yl)acrylamide] | > 10000 | ≤ 100 | ≤ 100 |
| C=CC(=O)Nc1cnc2c(c1)c(/C=C/C1CCC(F)(F)CC1)cn2C [Compound 15, (E)-N-(3-(2-(4,4-Difluorocyclohexyl)vinyl)-1-methyl-1H-pyrrolo[2,3-b]pyridin-5-yl)acrylamide] | ≤ 100 | ≤ 100 | ≤ 100 |
| C=CC(=O)Nc1cnc2c(c1)c(/C=C/C1CCC(F)(F)CC1)cn2CC [Compound 17, (E)-N-(3-(2-(4,4-Difluorocyclohexyl)vinyl)-1-ethyl-1H-pyrrolo[2,3-b]pyridin-5-yl)acrylamide] | – | ≤ 100 | 100 to 1000 |
| C=CC(=O)Nc1ccc2c(c1)c(C1=CCC(F)(F)CC1)cn2C [Compound 23, N-(3-(4,4-Difluorocyclohex-1-en-1-yl)-1-methyl-1H-indol-5-yl)acrylamide] | ≤ 100 | – | 100 to 1000 |
| C=CC(=O)Nc1ccc2c(c1)c(/C=C/c1ccc(Cl)cc1)cn2CC [Compound 26, (E)-N-(3-(4-Chlorostyryl)-1-ethyl-1H-indol-5-yl)acrylamide] | 100 to 1000 | – | 100 to 1000 |
| C=CC(=O)Nc1ccc2c(c1)c(/C=C/C1CCC(F)(F)CC1)cn2C(C)C [Compound 27, (E)-N-(3-(2-(4,4-Difluorocyclohexyl)vinyl)-1-isopropyl-1H-indol-5-yl)acrylamide] | 100 to 1000 | – | 100 to 1000 |
| C=CC(=O)Nc1cnc2c(c1)c(/C=C/C1CCC(F)(F)CC1)nn2CC [Compound 32, (E)-N-(3-(2-(4,4-Difluorocyclohexyl)vinyl)-1-ethyl-1H-pyrazolo[3,4-b]pyridin-5-yl)acrylamide] | ≤ 100 | – | 100 to 1000 |
| C=CC(=O)Nc1cnc2c(c1)c(/C=C/c1ccc(Cl)cc1)nn2CC [Compound 33, (E)-N-(3-(4-Chlorostyryl)-1-ethyl-1H-pyrazolo[3,4-b]pyridin-5-yl)acrylamide] | 1000 to 10000 | – | ≤ 100 |
| C=CC(=O)Nc1cnc2c(c1)c(/C=C/C1CCC(F)(F)CC1)nn2C(C)C [Compound 34, (E)-N-(3-(2-(4,4-Difluorocyclohexyl)vinyl)-1-isopropyl-1H-pyrazolo[3,4-b]pyridin-5-yl)acrylamide] | ≤ 100 | – | 100 to 1000 |
| C=CC(=O)Nc1cnc2c(c1)c(/C=C/c1ccc(Cl)cc1)nn2C(C)C [Compound 35, (E)-N-(3-(4-Chlorostyryl)-1-isopropyl-1H-pyrazolo[3,4-b]pyridin-5-yl)acrylamide] | 100 to 1000 | – | 100 to 1000 |
| C=CC(=O)Nc1cc(F)c2c(c1)c(/C=C/C1CCC(F)(F)CC1)cn2C [Compound 36, (E)-N-(3-(2-(4,4-Difluorocyclohexyl)vinyl)-7-fluoro-1-methyl-1H-indol-5-yl)acrylamide] | 100 to 1000 | – | ≤ 100 |
| C=CC(=O)Nc1cc(F)c2c(c1)c(/C=C/c1ccc(Cl)cc1)cn2C [Compound 37, (E)-N-(3-(4-Chlorostyryl)-7-fluoro-1-methyl-1H-indol-5-yl)acrylamide] | 100 to 1000 | – | ≤ 100 |
| C=CC(=O)Nc1cnc2c(c1)c(/C=C/c1ccc(F)cc1)cn2C [Compound 47, (E)-N-(3-(4-Fluorostyryl)-1-methyl-1H-pyrrolo[2,3-b]pyridin-5-yl)acrylamide] | – | ≤ 100 | ≤ 100 |
| C=CC(=O)Nc1cnc2c(c1)c(-c1ccc(C(F)(F)F)cc1)cn2C [Compound 51, N-(1-Methyl-3-(4-(trifluoromethyl)phenyl)-1H-pyrrolo[2,3-b]pyridin-5-yl)acrylamide] | 1000 to 10000 | – | ≤ 100 |
| C=CC(=O)Nc1cnc2c(c1)c(CCC1CCC(F)(F)CC1)cn2C [Example 64, N-(3-(2-(4,4-Difluorocyclohexyl)ethyl)-1-methyl-1H-pyrrolo[2,3-b]pyridin-5-yl)acrylamide] | ≤ 100 | – | ≤ 100 |
| Cn1cc(/C=C/c2ccc(Cl)cc2)c2cc(NC(=O)CCl)cnc21 [Example 70, (E)-2-Chloro-N-(3-(4-chlorostyryl)-1-methyl-1H-pyrrolo[2,3-b]pyridin-5-yl) acetamide] | 1000 to 10000 | – | 1000 to 10000 |
| C=CC(=O)Nc1cnc2c(c1)c(/C=C/c1ccc(Cl)s1)cn2C [Example 81, (E)-N-(3-(2-(5-Chlorothiophen-2-yl)vinyl)-1-methyl-1H-pyrrolo[2,3-b]pyridin-5-yl)acrylamide] | 100 to 1000 | – | ≤ 100 |

More lines, main results first:

| IC50 [1] [nM] | IC50 (NCI-H226 cells) [nM] | Compound | IC50 (MSTO-211H cells) [nM] |
| --- | --- | --- | --- |
| 100 to 1000 | – | C=CC(=O)Nc1cnc2c(c1)c(-c1cccc(/C=C/C3CCC(F)(F)CC3)c1)cn2C [Example 85, (E)-N-(3-(3-(2-(4,4-Difluorocyclohexyl)vinyl)phenyl)-1-methyl-1H-pyrrolo[2,3-b]pyridin-5-yl)acrylamide] | 100 to 1000 |
| 100 to 1000 | – | C=CC(=O)Nc1cnc2c(c1)c(-c1ccc(C3CC3)cc1)cn2C [Example 106, N-(3-(4-Cyclopropylphenyl)-1-methyl-1H-pyrrolo[2,3-b]pyridin-5-yl)acrylamide] | ≤ 100 |
| ≤ 100 | – | C=CC(=O)Nc1cnc2c(c1)c(-c1ccc3ccccc3c1)cn2C [Example 107, N-(1-Methyl-3-(naphthalen-2-yl)-1H-pyrrolo[2,3-b]pyridin-5-yl)acrylamide] | ≤ 100 |
| 100 to 1000 | – | C=CC(=O)Nc1cnc2c(c1)c(-c1ccc(SCC)cc1)cn2C [Example 111, N-(3-(4-(Ethylthio)phenyl)-1-methyl-1H-pyrrolo[2,3-b]pyridin-5-yl)acrylamide] | ≤ 100 |
| 1000 to 10000 | – | C=C(F)C(=O)Nc1cnc2c(c1)c(/C=C/c1ccc(Cl)cc1)cn2C [Example 118, (E)-N-(3-(4-Chlorostyryl)-1-methyl-1H-pyrrolo[2,3-b]pyridin-5-yl)-2-fluoroacrylamide] | ≤ 100 |
| 100 to 1000 | – | [2H]C([2H])([2H])n1cc(/C=C/c2ccc(Cl)cc2)c2cc(NC(=O)C=C)cnc21 [Example 121, (E)-N-(3-(4-Chlorostyryl)-1-(methyl-d3)-1H-pyrrolo[2,3-b]pyridin-5-yl)acrylamide] | ≤ 100 |
| ≤ 100 | – | C=CC(=O)Nc1ccc2c(c1)c(C1CCC(C)(C)CC1)cn2C [Example 122, N-(3-(4,4-dimethylcyclohexyl)-1-methyl-1H-indol-5-yl)acrylamide] | 100 to 1000 |
| – | 100 to 1000 | C=CC(=O)Nc1cnc2c(c1)c(/C=C/c1ccc(Cl)cc1)cn2C(F)F [Example 128, (E)-N-(3-(4-Chlorostyryl)-1-(difluoromethyl)-1H-pyrrolo[2,3-b]pyridin-5-yl)acrylamide] | 100 to 1000 |
| 100 to 1000 | – | C=CC(=O)Nc1cnc2c(c1)c(/C=C/C1CCC(F)(F)CC1)cn2C(F)F [Example 130, (E)-N-(3-(2-(4,4-Difluorocyclohexyl)vinyl)-1-(difluoromethyl)-1H-pyrrolo[2,3-b]pyridin-5-yl)acrylamide] | 100 to 1000 |
| 1000 to 10000 | – | C=CC(=O)Nc1cnc2c(c1)c(-c1ccc(Cl)cc1)cn2C(F)F [Example 132, N-(3-(4-Chlorophenyl)-1-(difluoromethyl)-1H-pyrrolo[2,3-b]pyridin-5-yl)acrylamide] | 100 to 1000 |

From US20250282735A1, “BICYCLE COMPOUNDS AS TEAD INHIBITOR” (DONG-A ST CO., LTD., priority 2022, published 2025)
